Laboratory results reported in BindingDB's records for doi:10.7270/Q2ZW1JC6 (Nmmlsc, 2016).

Target: Ras-related protein Rab-2A (Canis lupus familiaris, UniProt P61105)
Assay: Rab2A fluorescent GTP competition potency – biochemical, pyrazoline series, Bodipy-FL-GTP, flow cytometry, multiplex, SAR follow-up (AID 2045)

Ras-related protein Rab-2A, sequence (P61105 whole entry): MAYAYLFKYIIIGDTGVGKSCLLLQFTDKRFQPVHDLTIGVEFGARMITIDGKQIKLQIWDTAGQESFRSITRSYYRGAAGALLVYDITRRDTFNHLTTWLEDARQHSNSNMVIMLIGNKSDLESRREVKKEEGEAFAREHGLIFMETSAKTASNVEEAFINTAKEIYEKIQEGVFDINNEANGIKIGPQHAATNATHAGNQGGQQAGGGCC

EC50, > 30 µM:
Cc1ccccc1N1N=C(c2ccccc2)CC1c1ccc(N(C)C)cc1 (configuration not stated) [N,N-dimethyl-4-[2-(2-methylphenyl)-5-phenyl-3,4-dihydropyrazol-3-yl]aniline], COc1ccc(C2CC(c3ccccc3)=NN2c2ccc(S(N)(=O)=O)cc2)cc1OC (configuration not stated) [UNM-0000305823], COc1ccc(C2CC(c3ccc(Br)cc3)=NN2c2ccccc2Cl)cc1 (configuration not stated) [UNM-0000305832], COc1ccc(C2=NN(c3ccccc3)C(c3ccc(Cl)cc3)C2)cc1 (configuration not stated) [UNM-0000305833], O=S(=O)(O)c1ccc(N2N=C(c3ccccc3)CC2c2ccccc2)cc1 (configuration not stated) [UNM-0000305834], Cc1cccc(N2N=C(c3ccccc3)CC2c2ccccc2)c1 (configuration not stated) [UNM-0000305835], O=[N+]([O-])c1ccc([N+]2=N[C-](c3ccccc3)CC2c2ccc(O)cc2)cc1 (configuration not stated) [UNM-0000305838], CN(C)c1ccc(C2CC(c3ccc(Br)cc3)=NN2c2ccccc2)cc1 (configuration not stated) [UNM-0000305846], CN(C)c1ccc(C2CC(c3ccc(Cl)cc3)=NN2c2ccccc2)cc1 (configuration not stated) [UNM-0000305847], COc1ccc(C2=NN(c3ccccc3)C(c3ccc(OC)c(OC)c3C(=O)O)C2)cc1 (configuration not stated) [UNM-0000305848], Cc1ccccc1[N+]1=N[C-](c2ccccc2)CC1c1cccc([N+](=O)[O-])c1 (configuration not stated) [UNM-0000305854], COc1ccccc1N1N=C(c2ccccc2)CC1c1ccccc1 (configuration not stated) [UNM-0000305855], O=[N+]([O-])c1cccc(C2C[C-](c3ccccc3)N=[N+]2c2ccccc2)c1 (configuration not stated) [UNM-0000305857], COc1ccc(C2CC(c3ccc(Cl)cc3)=NN2c2ccccc2)cc1OC (configuration not stated) [UNM-0000305858], FC(F)(F)c1cccc(N2N=C(c3ccc(Cl)cc3)CC2c2ccccc2Cl)c1 (configuration not stated) [UNM-0000305859], COc1ccc(C2=NN(c3ccccc3F)C(c3ccc(F)cc3)C2)cc1 (configuration not stated) [UNM-0000305860], COc1ccc(C2=NN(c3ccc(Cl)cc3)C(c3ccccc3F)C2)cc1 (configuration not stated) [UNM-0000305863], COc1ccc(C2CC(c3ccc(F)cc3)=NN2c2ccccc2)cc1OC (configuration not stated) [UNM-0000305864], CN(C)c1ccc(C2CC(c3ccc(F)cc3)=NN2c2ccccc2)cc1 (configuration not stated) [UNM-0000305866], COc1ccc(C2CC(c3ccccc3)=NN2c2ccc(C(N)=O)cc2)cc1 (configuration not stated) [UNM-0000305870], COc1ccc(C2CC(c3ccccc3)=NN2c2ccc(C(=O)O)cc2)cc1 (configuration not stated) [UNM-0000306085], COc1ccc(C2CC(c3ccccc3F)=NN2c2ccc(S(N)(=O)=O)cc2)cc1 (configuration not stated) [UNM-0000306110], COc1ccc(C2CC(c3ccccc3Br)=NN2c2ccc(S(N)(=O)=O)cc2)cc1 (configuration not stated) [UNM-0000306112], COc1ccc(C2CC(c3cccc(Br)c3)=NN2c2ccc(S(N)(=O)=O)cc2)cc1 (configuration not stated) [UNM-0000306113], COc1ccc(C2CC(c3cccc(Cl)c3)=NN2c2ccc(S(N)(=O)=O)cc2)cc1 (configuration not stated) [UNM-0000306134], COc1ccc(C2CC(c3ccc(Br)cc3)=NN2c2ccc(S(N)(=O)=O)cc2)cc1 (configuration not stated) [UNM-0000306138], NS(=O)(=O)c1ccc(N2N=C(c3ccccc3)CC2c2cccc(Br)c2)cc1 (configuration not stated) [UNM-0000306147], Cc1ccccc1C1CC(c2ccccc2)=NN1c1ccc(S(N)(=O)=O)cc1 (configuration not stated) [UNM-0000306148], COc1ccc(C2CC(c3ccccc3C)=NN2c2ccc(S(N)(=O)=O)cc2)cc1 (configuration not stated) [UNM-0000306152], COc1ccc(C2CC(c3cccc(C)c3)=NN2c2ccc(S(N)(=O)=O)cc2)cc1 (configuration not stated) [UNM-0000306153], NS(=O)(=O)c1ccc(N2N=C(c3ccccc3)CC2c2ccc(Br)cc2)cc1 (configuration not stated) [UNM-0000306160], NS(=O)(=O)c1ccc(N2N=C(c3ccccc3)CC2c2cccc(Cl)c2)cc1 (configuration not stated) [UNM-0000306161]
